Results: patent US11179412B2, “Methods of treating conditions involving elevated inflammatory response” (University of Pittsburgh—Of the Commonwealth System of …, priority 2017, dated 2021)
Structures can show the parent of a compound that is named as a salt.

System: STING activation (IFNβ release) in iBMDMs
Assay: IFNβ release ELISA after STING ligand (or LPS) stimulation, iBMDMs
Type: cell-based, mouse
Conditions: iBMDMs; 3′3′-cGAMP 10 μg/ml, 16 hours; compound 10 μM
How it was run: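 iBMDMs were stimulated with a STING ligand such as 3′3′-cGAMP, or with LPS. Secreted IFNβ in culture medium was measured by commercial mouse or human IFNβ ELISA.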

Row | Compound | fold increase in IFN-β release | 3′3′-cGAMP-induced IFNβ release
1 | O=C(NC(NC(=S)Nc1ccc(F)c([N+](=O)[O-])c1)C(Cl)(Cl)Cl)C(c1ccccc1)c1ccccc1 (stereo not shown) [CGK 733] | 2.50 fold | –
2 | OC(CNCC(O)C1CCc2cc(F)ccc2O1)C1CCc2cc(F)ccc2O1 (stereo not shown) [Nebivolol] | 0.75 fold | –
3 | Cl.O=C(O)Cc1cccc(OCCCN(Cc2cccc(C(F)(F)F)c2Cl)CC(c2ccccc2)c2ccccc2)c1 [GW3965 HCl] | 0.74 fold | –
4 | O=C(Nc1cccc(C(F)(F)F)c1)Nc1cc(S(=O)(=O)NC2CC2)ccc1-c1ccsc1 [AGI-6780] | 2.14 fold | –
5 | Cc1c(C(=O)NN2CCCCC2)nn(-c2ccc(Cl)cc2Cl)c1-c1ccc(Cl)cc1 [Rimonabant] | 0.81 fold | –
6 | CCN(CC)C(=O)c1ccc(C2=CC3(CCNCC3)Oc3cccc(O)c32)cc1 [ADL5859 HCl] | 0.95 fold | –
7 | Cc1cc(Nc2cc(N3CCN(C)CC3)nc(Sc3ccc(NC(=O)C4CC4)cc3)n2)[nH]n1 [VX-680 (Tozasertib, MK-0457), Tozasertib] | 0.91 fold | –
8 | C=CC(=O)Nc1cccc(Nc2nc(Nc3ccc(NC4CN(CCF)C4)cc3OC)ncc2C(F)(F)F)c1 [CNX-2006] | 1.93 fold | –
9 | Nc1nc(N)c2nc(-c3ccccc3)c(N)nc2n1 [Triamterene] | 0.99 fold | –
10 | VU 0364770 | 2.00 fold | –
11 | Cc1c(-c2ccnn2C)cc(C(=O)NCc2ccc(S(C)(=O)=O)cn2)c(=O)n1-c1cccc(C(F)(F)F)c1 [Alvelestat (AZD9668), Alvelestat] | 0.27 fold | –
12 | CC(C)NCCCn1c(Sc2cc3c(cc2I)OCO3)nc2c(N)ncnc21 [PU-H71] | 1.13 fold | –
13 | CNC(=O)[C@H](Cc1ccccc1)NC(=O)[C@H](CC(C)C)[C@H](CSc1cccs1)C(=O)NO [Batimastat (BB-94), Batimastat] | 1.20 fold | –
14 | C[C@](O)(COc1ccc(C#N)cc1)C(=O)Nc1ccc(C#N)c(C(F)(F)F)c1 [MK-2866 (GTx-024)] | 1.47 fold | –
15 | Cc1cc(C)c(S(=O)(=O)n2cc(C)cc2C)c(C)c1 [HJC0350] | 1.05 fold | –
16 | O=C(NOCC1CC1)c1ccc(F)c(F)c1Nc1ccc(I)cc1Cl [PD184352 (CI-1040)] | 0.94 fold | –
17 | Cc1c(C(=O)Nc2ccc(N3C[C@@H](C)O[C@@H](C)C3)nc2)cccc1-c1ccc(OC(F)(F)F)cc1 [LDE225 (NVP-LDE225, Erismodegib), Erismodegib] | 1.31 fold | –
18 | CN(C)CCc1c[nH]c2ccc(Cn3cncn3)cc12 [Rizatriptan Benzoate] | 2.85 fold | –
19 | SNS-314 Mesylate | 1.10 fold | –
20 | N#Cc1c(NC(=O)c2cccc3ccccc23)sc2c1CCCC2 [JNK Inhibitor IX] | 0.53 fold | –
21 | O=[N+]([O-])c1ccc2c(c1)S(=O)(=O)C=C2 [Stattic] | 0.10 fold | –
22 | CCN(CC)CC(=O)Nc1c(C)cccc1C [Lidocaine] | 9.58 fold | promoted
23 | COc1cc(Nc2ncc(F)c(Nc3ccc4c(n3)N(COP(=O)(O)O)C(=O)C(C)(C)O4)n2)cc(OC)c1OC [Fostamatinib (R788), Fostamatinib] | 0.69 fold | –

Row | Compound | fold increase in IFN-β release | 3′3′-cGAMP-induced IFNβ release
24 | N#Cc1c(O)c2c(-c3ccc(-c4ccccc4O)cc3)csc2[nH]c1=O [A-769662] | 2.13 fold | –
25 | Cc1ccc(NC(=O)C2(c3ccc4c(c3)OC(F)(F)O4)CC2)nc1-c1cccc(C(=O)O)c1 [VX-809 (Lumacaftor), Lumacaftor] | 1.07 fold | –
26 | HO-3867 | 0.52 fold | –
27 | CCC(COC(=O)c1cc(OC)c(OC)c(OC)c1)(c1ccccc1)N(C)C (stereo not shown) [Trimebutine] | 0.30 fold | –
28 | CN(C)C(=O)[C@H](O)[C@H](Cc1ccccc1)NC(=O)c1cc2cc(Cl)ccc2[nH]1 [CP-91149] | 0.14 fold | –
29 | CC(C)C[C@H](NC(=O)[C@H]1O[C@@H]1C(=O)O)C(=O)NCCCCN=C(N)N [E-64] | 0.17 fold | –
30 | CCCc1ccc(OCC(=O)N(Cc2nc(-c3cccnc3)no2)C(C)C)cc1 [PI-1840] | 0.60 fold | –
31 | Cc1[nH]c2ccccc2c1CCNC(=O)c1cccs1 [CK-636] | 2.06 fold | –
32 | CCc1c(C(=O)NCCc2ccc(N3CCCCC3)cc2)[nH]c2ccc(Cl)cc12 [Org 27569] | 1.74 fold | –
33 | COC(=O)CCSCc1ccc(-c2onc(C)c2NC(=O)OC(C)c2ccccc2Cl)cc1 (stereo not shown) [Ki16198] | 0.51 fold | –
34 | COc1cc(C(=O)NC2CCN(C)CC2)ccc1Nc1ncc2c(n1)N(C1CCCC1)CC(F)(F)C(=O)N2C [Ro3280] | 2.16 fold | –
35 | VU 0364439 | 1.60 fold | –
36 | COc1cc2c(cc1Cc1cccc(Cl)c1F)c(=O)c(C(=O)O)cn2[C@H](CO)C(C)C [Elvitegravir (GS-9137, JTK-303), Elvitegravir] | 2.56 fold | –
37 | CC[C@@H]1/C=C/C=C/C[C@H](C)[C@H](O)[C@](C)(O)C(=O)[C@H](C)[C@@H](O)[C@H](C)C(=O)[C@H](C)[C@@H](O)[C@H](C)/C=C/C(=O)O[C@H]2[C@@H](C)[C@@H](CC1)O[C@@]1(CC[C@@H](C)[C@@H](C[C@H](C)O)O1)[C@@H]2C [Oligomycin A] | 2.49 fold | –
38 | CC(C)OC(=O)C1=CN(C(=O)c2ccc(F)c(F)c2)CC(C)(C)c2c1[nH]c1ccccc21 [XL335] | 0.26 fold | –
39 | O=C(c1ccc(Nc2nccc(-c3cc4ccccc4s3)n2)cc1)N1CCC(N2CCCC2)CC1 [IKK-16 (IKK Inhibitor VII)] | 1.16 fold | –
40 | COc1ccc(-c2cnc3c(-c4cccc5ncccc45)cnn3c2)cc1 [ML347] | 1.95 fold | –
41 | CN(C)Cc1ccc(-c2nc3cccc4c3n2CCNC4=O)cc1 [AG-14361] | 2.41 fold | –
42 | COc1cc2c(Nc3ccc(Br)cc3F)ncnc2cc1OCC1CCN(C)CC1 [Vandetanib (ZD6474), Vandetanib] | 0.25 fold | –
43 | Ifenprodil Tartrate | 1.71 fold | –
44 | CCCSc1nc(N[C@@H]2C[C@H]2c2ccc(F)c(F)c2)c2nnn([C@@H]3C[C@H](OCCO)[C@@H](O)[C@H]3O)c2n1 [Ticagrelor] | 1.70 fold | –
45 | c1ccc(NCc2ccc(CNc3ccccn3)cc2)nc1 [WZ811] | 1.67 fold | –
46 | Cc1ccc(C(=O)N(CCCN)[C@@H](c2nc3cc(Cl)ccc3c(=O)n2Cc2ccccc2)C(C)C)cc1 [Ispinesib (SB-715992), Ispinesib] | 2.12 fold | –

Row | Compound | fold increase in IFN-β release | 3′3′-cGAMP-induced IFNβ release
47 | COc1ccc([C@]2(C#N)CC[C@@H](C(=O)O)CC2)cc1OC1CCCC1 [Cilomilast] | 2.08 fold | –
48 | CCNc1nc(Nc2cc(F)c(C(=O)N3CCOCC3)cc2OC)ncc1C(F)(F)F [GNE-7915] | 2.41 fold | –
49 | CCOC(=O)[C@H](CCc1ccccc1)N[C@@H](C)C(=O)N1C(=O)N(C)C[C@H]1C(=O)O [Imidapril HCl] | 3.20 fold | –
50 | CCCC(C)NC(=O)c1ccc(Cl)c(Cl)c1 (stereo not shown) [NSC 405020] | 1.24 fold | –
51 | O=C(c1ccc(F)cc1)N1CCC[C@H](c2nc(-c3ccc(F)cc3)no2)C1 [ADX-47273] | 1.72 fold | –
52 | CC#CCn1c(N2CCC[C@@H](N)C2)nc2c1c(=O)n(Cc1nc(C)c3ccccc3n1)c(=O)n2C [Linagliptin] | 2.07 fold | –
53 | OC[C@H]1O[C@@H](c2ccc(Cl)c(Cc3ccc(O[C@H]4CCOC4)cc3)c2)[C@H](O)[C@@H](O)[C@@H]1O [Empagliflozin (BI 10773), Empagliflozin] | 0.57 fold | –
54 | O=C(Nc1ccccc1-c1cn2c(CN3CCNCC3)csc2n1)c1cnc2ccccc2n1 [SRT1720] | 0.76 fold | –
55 | FC(F)(F)c1ccc(/C=C/c2nc(COc3ccc(CCCCn4ccnn4)cc3)co2)cc1 [Mubritinib (TAK 165), Mubritinib] | 0.56 fold | –
56 | CN(C)CCCCC(=O)Nc1ccc(NC(=S)NC(=O)c2ccc(C(C)(C)C)cc2)cc1 [Tenovin-6] | 0.53 fold | –
57 | Cc1nn(-c2ccccc2)c(C)c1/C=N/N1CCN(Cc2ccccc2)CC1 [SANT-1] | 1.49 fold | –
58 | CN1CCC[C@@H]1CCO[C@](C)(c1ccccc1)c1ccc(Cl)cc1 [Clemastine Fumarate] | 1.32 fold | –
59 | CNC(=O)c1ccc2cc([C@@]3(O)CCn4cncc43)ccc2c1 [TAK-700 (Orteronel), Orteronel] | 2.72 fold | –
60 | NC(=O)c1ccc(I)c([N+](=O)[O-])c1 [Iniparib (BSI-201), Iniparib] | 0.23 fold | –
61 | CCCCN1CCCCC1C(=O)Nc1c(C)cccc1C (stereo not shown) [Bupivacaine HCl] | 0.42 fold | –
62 | CCCC(=O)Nc1cccc(NC(=O)c2ccccc2Br)c1 [ML161] | 0.95 fold | –
63 | C=C1C(=O)O[C@@H]2/C=C(\C)CC/C=C(\C)CC[C@@H]12 [Costunolide] | 0.37 fold | –
64 | NC1(Cc2ccc(Cl)cc2)CCN(c2ncnc3[nH]ccc23)CC1 [CCT128930] | 1.46 fold | –
65 | CCOC(=O)NCCCC(=O)NCCc1ccccc1 [Santacruzamate A (CAY10683), Santacruzamate A] | 1.18 fold | –
66 | CS(=O)(=O)N1CCN(Cc2cc3nc(-c4cccc5[nH]ncc45)nc(N4CCOCC4)c3s2)CC1 [GDC-0941] | 2.13 fold | –
67 | CC(C)(C)NC(=O)[C@H]1CC[C@H]2[C@@H]3CC[C@H]4NC(=O)C=C[C@]4(C)[C@H]3CC[C@]12C [Finasteride] | 0.85 fold | –
68 | O=C(Nc1cc(C(F)(F)F)ccc1N1CCCCC1)c1ccncc1 [SRPIN340] | 2.38 fold | –
69 | CCc1c2c(nc3ccc(OC(=O)N4CCC(N5CCCCC5)CC4)cc13)-c1cc3c(c(=O)n1C2)COC(=O)[C@]3(O)CC [Irinotecan] | 1.13 fold | –
